# Where two headings read alike, the source gives them in different places.
# Assays:
# HIV = experiment: In vitro anti-HIV activity, PBMC cell-based assay, side by side with AZT; settings: Human immunodeficiency virus 1
# [1] = Cytotoxicity (CC50) in the PBMC cell-based anti-HIV assay
# [2] = literature values, same sources as the IC50; cited from earlier work
IC50 (HIV),SMILES,CC50 [1],CC50 [2]
0.02 µM,O=C(O)/C(O)=C/C(=O)c1cn(Cc2ccccc2)c(=O)n(Cc2ccccc2)c1=O,> 200 µM,–
–,O=C(O)C(=O)CC(=O)c1cc(OCc2ccccc2)cc(OCc2ccccc2)c1 [Example L-708906],–,88.3 µM
–,O=C(/C=C(\O)c1nc[nH]n1)c1ccc(Cc2ccc(F)cc2)o1 [Example S-1360],–,110 µM

# From patent publication US7569573B2, “Diketo acids with nucleobase scaffolds: anti-HIV replication inhibitors targeted at HIV integrase” (The University of Georgia Research Foundation, Inc., priority 2005, dated 2009)
